Publication PMC5118688 (Scientific Reports, 2016)
Converted amounts (≈) assume the structure as drawn. Read-outs that look alike come from different tables or passages of the source.

Assays:
mAb3C9 [1] = experiment: optimized chemosynthesized antigen-based dcELISA (mAb3C9 and hapten 6-OVA); conditions: for CR (%): Hapten 6-OVA, (IC50 of parathion-methyl/IC50 of pesticide) × 100
Experimental: (§1) The dcELISA procedure was performed as below. First, the plate (Costar, Corning Inc., New York, USA) was coated with coating antigen (100 μL/well in 1 × PBS) for 1 h at 37 °C. Then, the wells were washed four times with PBST (1 × PBS with 0.05% (v/v) Tween-20) and blocked with 2% skim milk (200 μL/well) for 1 h at 37 °C. After washing four times, 50 μL analyte in MeOH-water solution and 50 μL mAb-HRP in PBS were added. The plate was incubated for 1 h at 37 °C and then washed four times before adding TMB solution (100 μL/well). After incubation for 15 min at 37 °C, 50 μL/well of H2SO4 (2 mol/L) was added to stop the reaction, and the absorbance was recorded at 450 nm using the Model 680 plate reader (Bio-Rad, USA).
(§2) 18 kinds of O,O-dimethyl OPs and 6 kinds of O,O-diethyl OPs were purchased from National Standards of China and used for the selectivity and sensitivity study using the optimized dcELISA procedure. […] The IC50 value and detection limit of each OP were calculated. The CR value, which was used to evaluate the selectivity of the method, was calculated using the following equation:

mAb3C9 [2] = experiment: mimotope-based dcELISA (mAb3C9 and M20-GST-BAD/SA-HRP competitor); assay type: binding, mouse; conditions: for CR (%): M20-GST-BAD, (IC50 of parathion-methyl/IC50 of pesticide) × 100
Experimental: To develop a mimotope-based dcELISA, the biotinylated mimotope fusion protein was firstly assembled with streptavidin-HRP conjugate (SA-HRP) utilized the high affinity of biotin and streptavidin. The assembly process was just mixing a certain amount of biotinylated mimotope fusion protein with SA-HRP and incubating them at 4 °C overnight before use as an HRP-labeled competitor.
An innovative mimotope-based dcELISA was developed and performed as below. […] TMB solution (100 μL/well) was added and incubated for 15 min at 37 °C.
The optimal condition for mimotope-based dcELISA was optimized as chemosynthesized antigen-based dcELISA. The selectivity and sensitivity of the developed mimotope-based dcELISA for the 24 OPs were also determined under the optimum condition.

mAb4D11 = experiment: optimized mAb4D11-based dcELISA
Experimental: as §1, §2

[3] = ref Liang et al. 9; cited from earlier work
[4] = ref Hua et al. 11; cited from earlier work
[5] = tested on: mAb against a generic hapten (3-(4-dimethoxyphosphorothioyloxy phenyl)propanoic acid); conditions: ref Liu et al. 10; cited from earlier work
[6] = mAb3C9, coating antigen Hapten 6-OVA

SMILES	CR (%) (mAb3C9 [1])	LOD (IC10) (mAb3C9 [1]; mAb3C9, Hapten 6-OVA) [µg/mL]	IC50 ± SD (mAb3C9 [1]; [6]) [µg/mL]	CR (%) (mAb3C9 [2])	LOD (IC10) (mAb3C9 [2]; mAb3C9, M20-GST-BAD) [µg/mL]	IC50 ± SD (mAb3C9 [2]; mAb3C9, competitor M20-GST-BAD) [µg/mL]	CR (%) (mAb4D11; mAb4D11-based dcELISA)	IC50 (mAb4D11; mAb4D11-based dcELISA) [µg/mL]	LOD (mAb4D11; mAb4D11-based dcELISA) [ng/mL]	IC50 [3] [µg/mL]	IC50 [4] [µg/mL]	IC50 [5] [µg/mL]	IC50 ± SD (mAb3C9 [1]) [µg/mL]	LOD (IC10) (mAb3C9 [1]) [µg/mL]	IC50 ± SD (mAb3C9 [2]) [µg/mL]	LOD (IC10) (mAb3C9 [2]) [µg/mL]	CR (%) (mAb4D11)	IC50 (mAb4D11) [µg/mL]
CCOP(=S)(OCC)Oc1cc(C)nc(C(C)C)n1 [Diazinon]	0.3	0.3917	1.8124 ± 0.0461 (≈ 5.95 µM)	0.2	0.4123	2.0648 ± 0.0417 (≈ 6.78 µM)	5.0	0.2883 (≈ 0.947 µM)	73.2									
CCOC(=O)CC(SP(=S)(OC)OC)C(=O)OCC (stereo not drawn) [Malathion]										0.0301 (≈ 0.0911 µM)	> 100	10.47 (≈ 31.7 µM)						
CCOP(=S)(OCC)Oc1ccc([N+](=O)[O-])cc1 [Parathion]	0.2	0.4663	2.4125 ± 0.061 (≈ 8.28 µM)	0.2	0.4392	2.3284 ± 0.0514 (≈ 7.99 µM)	8.9	0.1636 (≈ 0.562 µM)	17.5	> 1	0.0113 (≈ 0.0388 µM)							
COP(=S)(OC)Oc1ccc(SC)c(C)c1 [Fenthion]	32.1	0.003	0.0145 ± 0.0011 (≈ 0.0521 µM)	21.6	0.0044	0.0234 ± 0.0017 (≈ 0.0841 µM)	303.6	0.0048 (≈ 0.0172 µM)	0.9	0.7889 (≈ 2.83 µM)	> 100	1.21 (≈ 4.35 µM)						
CNC(=O)CSP(=S)(OC)OC [Dimethoate]	2.7			2.7									0.1703 ± 0.0073 (≈ 0.743 µM)	0.0184	0.1893 ± 0.0081 (≈ 0.826 µM)	0.0284	< 0.3	> 5
CCOP(=S)(OCC)SCn1nnc2ccccc2c1=O [Azinphos-ethyl]	4.9	0.0216	0.0953 ± 0.0042 (≈ 0.276 µM)	4.7	0.0264	0.1074 ± 0.0032 (≈ 0.311 µM)	< 0.3	> 5										
CCN(CC)c1nc(C)cc(OP(=S)(OC)OC)n1 [Pirimiphos-methyl]	6.0	0.0156	0.0774 ± 0.0033 (≈ 0.253 µM)	6.0	0.0222	0.0837 ± 0.0038 (≈ 0.274 µM)	23.4	0.0621 (≈ 0.203 µM)	9.1									
CNC(=O)/C=C(\C)OP(=O)(OC)OC [Monocrotophos]	2.6	0.0432	0.1791 ± 0.0086 (≈ 0.803 µM)	2.5	0.0616	0.2014 ± 0.0043 (≈ 0.902 µM)	0.5	2.9145 (≈ 13.1 µM)	594.3									
CCOP(=S)(Oc1ccc([N+](=O)[O-])cc1)c1ccccc1 (stereo not drawn) [EPN]											0.0183 (≈ 0.0566 µM)							
CCOP(=S)(OCC)Oc1cnc2ccccc2n1 [Quinalphos]	0.2	0.5123	2.8243 ± 0.0952 (≈ 9.47 µM)	0.2	0.5318	3.2266 ± 0.0592 (≈ 10.8 µM)	7.9	0.1842 (≈ 0.617 µM)	32.5									
CCOP(=O)(OCC)Oc1ccc([N+](=O)[O-])cc1 [Paraoxon-ethyl]											0.1622 (≈ 0.589 µM)							
COP(=O)(OC)Oc1ccc([N+](=O)[O-])cc1 [Paraoxon-methyl]	2.0	0.0524	0.231 ± 0.0121 (≈ 0.935 µM)	1.7	0.0632	0.2949 ± 0.0093 (≈ 1.19 µM)	0.5	2.6433 (≈ 10.7 µM)	512.5		0.1187 (≈ 0.48 µM)							
COP(=S)(OC)Oc1ccc(S(=O)(=O)N(C)C)cc1 [Famphur]	347.8	0.0003	0.0013 ± 0.0001 (≈ 0.004 µM)	339.6	0.0004	0.0015 ± 0.0001 (≈ 0.00461 µM)	4.2	0.3464 (≈ 1.06 µM)	80.3		58.2157 (≈ 179 µM)							
COP(=S)(OC)Oc1ccc([N+](=O)[O-])cc1Cl [Isochlorthion]											0.5766 (≈ 1.94 µM)							
COP(=S)(OC)SCN1C(=O)c2ccccc2C1=O [Phosmet]	323.6	0.0003	0.0014 ± 0.0001 (≈ 0.00441 µM)	332.9	0.0003	0.0015 ± 0.0001 (≈ 0.00473 µM)	< 0.3	> 5		0.1597 (≈ 0.503 µM)								
COP(=S)(OC)Oc1c(Cl)cc(C)cc1Cl [Tolclofos-methyl]	70.2	0.0012	0.0066 ± 0.0003 (≈ 0.0219 µM)	61.3	0.0017	0.0083 ± 0.0004 (≈ 0.0276 µM)	46.2	0.0314 (≈ 0.104 µM)	9.5		> 100	1.1 (≈ 3.65 µM)						
COP(=S)(OC)Oc1cc(Cl)c(Cl)cc1Cl [Fenchlorphos]	10.5	0.0074	0.0443 ± 0.0022 (≈ 0.138 µM)	10.1	0.0093	0.0501 ± 0.0021 (≈ 0.156 µM)	26.4	0.055 (≈ 0.171 µM)	13.3									
COP(=O)(OC)O/C(=C\Cl)c1cc(Cl)c(Cl)cc1Cl [Tetrachlorvinphos]	8.6	0.0089	0.0544 ± 0.0021 (≈ 0.149 µM)	8.5	0.0112	0.0597 ± 0.0033 (≈ 0.163 µM)	0.6	2.4313 (≈ 6.64 µM)	536.3									
COP(=O)(OC)OC=C(Cl)Cl [Dichlorvos]	3.5	0.024	0.1321 ± 0.0061 (≈ 0.598 µM)	3.5	0.0312	0.1454 ± 0.0038 (≈ 0.658 µM)	0.8	1.8279 (≈ 8.27 µM)	437.2		> 100							
COc1nn(CSP(=S)(OC)OC)c(=O)s1 [Methidathion]	162.9	0.0006	0.0029 ± 0.0001 (≈ 0.00959 µM)	157.6	0.0006	0.0032 ± 0.0002 (≈ 0.0106 µM)	< 0.3	> 5		0.1917 (≈ 0.634 µM)								
COP(=S)(OC)Oc1nc(Cl)c(Cl)cc1Cl [Chlorpyrifos-methyl]	120.7	0.0007	0.0039 ± 0.0001 (≈ 0.0121 µM)	122.8	0.0009	0.0041 ± 0.0002 (≈ 0.0127 µM)	59.4	0.0244 (≈ 0.0757 µM)	5.7		> 100	0.81 (≈ 2.51 µM)						
COP(=S)(OC)SCn1nnc2ccccc2c1=O [Azinphos-methyl]	306.6	0.0004	0.0015 ± 0.0001 (≈ 0.00473 µM)	290.8	0.0004	0.0017 ± 0.0001 (≈ 0.00536 µM)	< 0.3	> 5			> 100							
COP(=S)(OC)Oc1ccc(C#N)cc1 [Cyanophos]	152.8	0.0006	0.0031 ± 0.0002 (≈ 0.0127 µM)	146.2	0.0007	0.0035 ± 0.0001 (≈ 0.0144 µM)	82.5	0.0176 (≈ 0.0724 µM)	2.3		0.0203 (≈ 0.0835 µM)							
COP(=S)(OC)Oc1cc(Cl)c(Br)cc1Cl [Bromophos-methyl]	6.2	0.0195	0.0755 ± 0.0041 (≈ 0.206 µM)	6.2	0.0194	0.0822 ± 0.0024 (≈ 0.225 µM)	11.6	0.1246 (≈ 0.34 µM)	31.4									
CCOP(=S)(OCC)O/N=C(\C#N)c1ccccc1 [Phoxim]	0.2	0.4354	2.6524 ± 0.112 (≈ 8.89 µM)	0.2	0.4336	2.5779 ± 0.0721 (≈ 8.64 µM)	5.9	0.2441 (≈ 0.818 µM)	49.5		> 100							
